Laboratory results from patent US11992489B2, “Substituted tetrahydroquinoline compounds as indoleamine 2,3-dioxygenase inhibitors” (Merck Sharp & Dohme LLC, priority 2018, dated 2024).

Experiments:
IDO1 [1] = target: T1, IDO1 (Homo sapiens, UniProt P14902); assay: IDO1 cellular assay in HeLa cells stimulated with IFNγ; assay type: cell-based; settings: IFNγ 100 ng/mL, 300 uM L-tryptophan, about 48 hours, fluorescence readout, read-out: HeLa Cell Potency, IC50
Procedure: Biological Assays IDO1 Cellular Assay in HeLa Cells Stimulated with IFNγ
HeLa cells were cultured in complete HeLa culture medium (90% EMEM, 10% heat-inactivated fetal bovine serum) and expanded to about 1×10^9 cells. The cells were then collected and frozen down at 1×10^7 cells/vial in 1 mL frozen medium (90% complete HeLa culture medium, 10% DMSO).
Compounds to be tested were serially diluted in ten 3-fold steps in DMSO starting from 10 mM DMSO stocks in Echo low volume plate(s). Compound dilutions or DMSO alone were then dispensed from the dilution plate(s) into Greiner black 384-well assay plate(s) (catalog #781086, 50 nL/well) using an Echo 550 acoustic liquid handler (Labcyte).
Frozen HeLa cells were thawed and transferred into HeLa assay medium (99% complete HeLa culture medium, 1% Pen/Strep) with 20 mL medium/vial of cells. The cells were spun down at 250 g in a table top centrifuge for 5 min and suspended in same volume of HeLa assay medium. The cells were then counted and adjusted to a density of 2×10^5 cells/mL in HeLa assay medium. Sterile L-tryptophan were added to the cells with final concentration of 300 uM L-tryptophan. A small aliquot (2 mL/plate) of HeLa cells were set aside and were not treated with IFNγ, to serve as the Max-E control.
HeLa cells with and without IFNγ were dispensed to the respective wells of 384-well assay plates containing the compounds. The plates were incubated for about 48 hours at a 37° C., 5% CO2 incubator. Afterwards, 12 μL of 0.5 M methyl isonipecotate in dimethyl sulfoxide were added into each well and the plates were sealed and incubated at 37° C. without CO2 overnight. The plates were centrifuged for 1 min at 200×g. The resulting fluorescence was measured in a Spectramax plate reader (Molecular Devices) with a 400 nm excitation filter and a 510 nm emission filter.
The fluorescence intensity of each well was corrected for the background observed in wells with non-IFNγ-treated cells and was expressed as a fraction of the intensity observed in wells of IFNγ-treated cells and DMSO only. Potencies were calculated by linear least squares fit to the four parameter logistic IC50 equation.

IDO1 [2] = target: T1, IDO1; assay: IDO1 human whole blood assay; assay type: cell-based; set-up: Human whole blood was drawn in sodium heparin coated tubes from healthy internal donors; from tissue; host or cells: human whole blood from healthy donors, stimulated with LPS/IFNγ; settings: stimulant 100 ng/mL final, 18 h, kynurenine by LC/MS/MS, read-out: Human Whole Blood Potency, IC50
Procedure: IDO1 Human Whole Blood Assay
Compounds to be tested were serially diluted in ten 3-fold steps in DMSO starting from 10 mM. 3 μL of compound dilutions or DMSO alone were then dispensed from the dilution plate into a polypropylene 96-well assay plate containing 97 μL of RPMI medium using an Echo 555 acoustic liquid handler (Labcyte). Lipopolysaccharide (LPS) induced IFNγ was prepared in RPMI medium to a 10× of final conc. (1000 ng/mL), final concentration is 100 ng/mL.
Human whole blood was drawn in sodium heparin coated tubes from healthy internal donors. 240 μL of blood was transferred to each of the wells of a v-bottom 96 well plate. 30 μL of compound was transferred from intermediate dilution plate, and incubated for 15 min. 30 μL from stimulants was then transferred to blood and mixed thoroughly. Plate was covered with breathable membrane and incubated at 37° C. for overnight (18 h).
On day 2, isotope labeled standard solutions of kunurenine and tryptophan was made in water at 10× concentration and 30 μL was added to the blood at 3 μM final concentration. The assay plates were centrifuged at 300×G for 10 min with no brake to separate plasma from red blood cells. 60 μL of plasma samples was removed without disturbing red blood cells. Plasma was diluted with RPMI in 1:1 ratio and proteins were precipitated out with two volumes of Acetonitrile. The plates were centrifuged at 4000×G for 60 min. 20 μL of supernatant was carefully transferred to a 384 well plate containing 40 μL of 0.1% formic acid in water and analyzed by LC/MS/MS.
LC/MS/MS analyses were performed using Thermo Fisher's LX4-TSQ Quantum Ultra system. This system consists of four Agilent binary high-performance liquid chromatography (HPLC) pumps and a TSQ Quantum Ultra triple quadrupole MS/MS instrument. For each sample, 5 μL were injected onto an Atlantis T3 column (2.1 mm×150 mm, 3 μm particle size) from Waters. The mobile phase gradient pumped at 0.8 mL/min was used to elute the analytes from the column at 25° C. […] Compounds were titrated and IC50's were calculated by 4 parameter sigmoidal curve fitting formula.

T1 sequence (P14902 whole entry): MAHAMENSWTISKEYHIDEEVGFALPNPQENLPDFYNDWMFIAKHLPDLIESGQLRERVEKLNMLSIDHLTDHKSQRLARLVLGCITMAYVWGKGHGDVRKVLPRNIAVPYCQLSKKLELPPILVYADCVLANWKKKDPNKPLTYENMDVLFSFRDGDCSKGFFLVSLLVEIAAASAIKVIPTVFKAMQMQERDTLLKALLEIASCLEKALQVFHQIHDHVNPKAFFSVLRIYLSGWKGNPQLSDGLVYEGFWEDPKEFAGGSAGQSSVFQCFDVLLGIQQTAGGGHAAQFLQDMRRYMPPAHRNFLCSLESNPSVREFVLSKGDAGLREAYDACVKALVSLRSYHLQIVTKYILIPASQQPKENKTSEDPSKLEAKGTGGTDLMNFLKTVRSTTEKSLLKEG

SMILES: O=C(NC1(c2ccc3c(n2)CCC[C@H]3Oc2cccc(Cl)c2)CC1)c1ccc(F)cc1 (single isomer, unassigned) [Example 2]
- IC50 (IDO1 [1]): 2.98 nM
- IC50 (IDO1 [2]): 864 nM

SMILES: O=C(NC1(c2ccc3c(n2)CCCC3Oc2cccc(Cl)c2)CC1)c1ccc(F)cc1 (stereo not drawn) [Example 1, N-(1-(5-(3-chlorophenoxy)-5,6,7,8-tetrahydroquinolin-2-yl)cyclopropyl)-4-fluorobenzamide]
- IC50 (IDO1 [1]): 2.68 nM
- IC50 (IDO1 [2]): 601 nM

SMILES: O=C(NC1(c2ccc3c(n2)CCC[C@@H]3Oc2cccc(Cl)c2)CC1)c1ccc(F)cc1 (single isomer, unassigned) [Example 3]
- IC50 (IDO1 [1]): 6.99 nM
- IC50 (IDO1 [2]): > 1000 nM
